Data reported in US20230173089A1, “Q-ER PEPTIDE” (Biotempt B.V., priority 2019, published 2023).
Like-named read-outs stand apart in the source and are kept apart here.

What was measured:
[1] = system: murine polymicrobial sepsis model; settings: cited from earlier work
[2] = system: high-dose lipopolysaccharide induced inflammation; settings: previous study; cited from earlier work
[3] = system: male C57B1/6N mice with renal ischemia/reperfusion injury; settings: cited from earlier work
[4] = system: healthy volunteers given E. coli endotoxin; settings: cited from earlier work
[5] = system: allogenic kidney transplantation recipients; settings: 50 mg/kg twice daily i.p.; cited from earlier work
[6] = system: non-obese diabetic (NOD) mouse; assay: type 1 diabetes development in NOD mice; type: in vivo; settings: 250 µg i.p. three times per week, female NOD mice from 14 weeks, max five weeks
Description: The non-obese diabetic (NOD) mouse spontaneously develops type 1 diabetes (T1D) and has served as a model for understanding the genetic and immunological basis, and treatment, of T1D. NOD mice are used in these studies. Most diabetic NOD mice suffer from insulin deficiency diabetes, with the underlying cause of the pancreatic beta-cell loss or destruction most likely a result of an inflammatory process in the micro-vasculature surrounding endocrine beta-cell tissues and genetically accelerated autoimmunity is suspected. Diabetes is assessed by measurement of the venous blood glucose level using an Abbott Medisense Precision glucometer. Mice are considered diabetic after two consecutive glucose measurements ≥11 mmol/l (200 mg/dl). Onset of diabetes is dated from the first consecutive reading of ≥11 mmol/l. In vivo treatment: groups of 14 weeks-old female NOD mice (n=12 per group) are treated with synthetic peptide SEQ ID NO:5 (AQGVAPG), SEQ ID NO:6 (LQGVAPG), SEQ ID NO:7 (AQGVLPG), SEQ ID NO:8 (LQGVLPG) or vehicle (PBS), respectively. Treatment is done by injecting 250 µg peptide diluted in PBS three times per week intraperitoneally (i.p.). Control mice are treated with PBS only. The treatment is discontinued when all PBS treated NOD mice in the experiment have developed diabetes. This is generally at the age of 19 weeks. The peptide and PBS treatments are done for a maximum of five weeks. In instances of hyperglycaemia of ≥20 mmol/l the mice are killed to avoid prolonged discomfort. The remainder mice are kept alive up to the age of 35 weeks without any further treatment.

[7] = system: Wistar rats with hemorrhagic shock; assay: hemorrhagic shock and resuscitation in rats (Example 15, SIRS); type: in vivo, rat; settings: single injection 30 minutes after induction of hemorrhagic shock
Procedure: Severe hemorrhagic shock followed by resuscitation induces a massive inflammatory response, which may culminate into systemic inflammatory response syndrome, multiple organ dysfunction syndrome and finally death. Treatments that effectively prevent this inflammation are limited so far. […] Considering this powerful anti-inflammatory effect, it was investigated whether administration of 0.5 ml i.p. of synthetic heptapeptide SEQ ID NO:5 (AQGVAPG), SEQ ID NO:6 (LQGVAPG), SEQ ID NO:7 (AQGVLPG), SEQ ID NO:8 (LQGVLPG), dissolved in 0.9% NaCl at a concentration of 25 mg/ml, or vehicle (0.9% NaCl), respectively, during the SIRS-phase of hemorrhagic shock, is able to attenuate the inflammatory response associated with this condition.
Hemorrhagic shock is induced in groups of 6 rats for 60 minutes by blood withdrawal until a mean arterial pressure of 40 mmHg is reached. Thirty minutes after induction of hemorrhagic shock, rats received a single injection with one of synthetic heptapeptide SEQ ID NO:5 (AQGVAPG), SEQ ID NO:6 (LQGVAPG), SEQ ID NO:7 (AQGVLPG), SEQ ID NO:8 (LQGVLPG), or 0.9% NaCl solution, as control. Treatment with synthetic heptapeptide SEQ ID NO:5 (AQGVAPG), SEQ ID NO:6 (LQGVAPG), SEQ ID NO:7 (AQGVLPG), SEQ ID NO:8 (LQGVLPG) prevents systemic release of TNF-α and IL-6 and is associated with reduced TNF-α, IL-6 and E-selectin mRNA transcript levels in the liver, with reduced neutrophil infiltration into the liver and is associated with reduced liver damage.
Animals. Adult male specific pathogen-free Wistar rats weighing 350-400 g are used. Rats are housed under barrier conditions at 25° C. with a twelve-hour light/dark cycle, and are allowed food and water ad libitum. The experimental protocol adheres to the rules laid down in national law that serves the implementation of “Guidelines on the protection of experimental animals” by the Council of Europe (1986), Directive 86/609/EC. hCG-related synthetic oligopeptides. Rats are food deprived overnight before the start of the experiment, but are allowed water ad libitum. Rats are anesthetized using a mixture of N2 O/O2 /isoflurane (Pharmachemie B.V., Haarlem, The Netherlands). Body temperature is continuously maintained at 37.5° C. by placing the rats on a thermo controlled “half-pipe” (UNO, Rotterdam, The Netherlands). Endotracheal intubation is performed, and rats are ventilated at 60 breaths per minute with a mixture of N2 O/O2 /isoflurane. Polyethylene tubes (PE-50, Becton Dickinson; St. Michielsgestel, The Netherlands) are flushed with heparin and placed via the right carotid artery in the aorta and in the right internal jugular vein. A 5 cm midline laparotomy is performed and a supra pubic catheter is inserted to monitor urine production. Hemorrhagic shock is induced by blood withdrawal, reducing the circulating blood volume until a mean arterial pressure (MAP) of 40 mmHg is reached. This level of hypotension is maintained for 60 minutes. Thirty minutes after the induction of hemorrhagic shock, rats received a single intravenous (IV) bolus injection of heptapeptide solution or vehicle. Sixty minutes after induction of hemorrhagic shock, rats are resuscitated by four times their shed blood volume over a period of 30 minutes to normalize the MAP, and monitored for another 120 minutes after which they are sacrificed. The rats receive no heparin before or during the experiment. Sham animals are subjected to the same surgical procedure as the hemorrhagic shock animals, but without blood withdrawal and administration of heptapeptide.

mTOR = settings: cited from earlier work
[8] = system: colonic inflammation induced by dextran sulfate sodium (DSS); settings: Gln supplementation; cited from earlier work
[9] = system: Streptozotocin-induced diabetic rats; assay: renal function and urinary protein leakage in streptozotocin-induced diabetic rats; type: in vivo, rat; settings: 140 minutes i.v. infusion, 5 nmol x min(-1) x kg(-1) body wt
Procedure: Acute effects of 140 minutes i.v. infusion of heptapeptide with SEQ ID NO:8 (LQGVLPG; 5 nmol x min(-1) x kg(-1) body wt) on renal function and urinary protein leakage are studied in anesthetized diabetic male rats two weeks after streptozotocin injection without insulin treatment. Streptozotocin-induced diabetic rats are studied with (N = 12) and without heptapeptide (N = 11) treatment. The two groups show a similarly elevated blood glucose concentration during the study. Age-matched normal rats serve as controls (N = 5). Glomerular filtration rate (GFR) is measured by inulin clearance in the basal state and during a 60-minute glycine infusion (0.22 mmol x min(-1) x kg(-1) body wt)-resembling a protein load challenge-to test the renal functional reserve in all three groups.
In the basal state, the non-heptapeptide-treated diabetic rats display increased GFR and increased total protein leakage when compared with normal rats. Whereas normal rats respond to glycine infusion with an increase in GFR, no increase occurs in diabetic rats not treated with heptapeptide. In diabetic rats given heptapeptide, this reduces the initial glomerular hyperfiltration prior to glycine infusion. […] Thus, short-term infusion of heptapeptide has beneficial effects on protein leakage and hyperfiltration and improves the renal functional reserve in rats.

For “LQGV (Immunomodulatory peptide) [SEQ ID NO:1, synthetic linear glutamine-containing tetrapeptide derived from beta-human chorionic gonadotropin]”, the “survival during the first 5 days after moderate cecal ligation and puncture” value ([1]; 5 mg/kg bodyweight, control 20%) is listed as 50%, the “survival in severe cecal ligation and puncture model” value ([1]; 5 mg/kg combined with fluid resuscitation and antibiotics, fluid resuscitation and antibiotics alone 30%) is listed as 70% and the “cytokine and E-selectin levels in peritoneal lavage fluid, lungs and plasma” value ([1]; moderate cecal ligation and puncture, 5 mg/kg) is listed as “reduced”. The “pulmonary nuclear factor-κB activation and pulmonary damage” value ([1]; mouse, in vivo) was “reduced” and the “inflammatory response and mortality following high-dose lipopolysaccharide” value [2] was “inhibit”.
In the case of “AQGV (Immunomodulatory peptide) [SEQ ID NO:2, synthetic linear glutamine-containing tetrapeptide derived from beta-human chorionic gonadotropin]”, the “survival after IRI” value ([3]; 20-50 mg/kg twice daily i.p. for four days, started 24 hours after IRI) is listed as “markedly improved”, the “CTGF up-regulation (marker of post-ischemic fibrosis) in renal tissue” value ([3]; four weeks after IRI) is listed as “significantly less” and the “tubular epithelial cell proliferation” value ([3]; mouse, in vivo) is listed as “significantly enhanced”. For the same compound, the acute tubular injury ([3]; two days after IRI) was “diminished”, the “endotoxin induced increase in plasma levels of IL-6, IL-8, IL-1RA, MCP-1, MIP-1α, MIP-1β and VCAM-1” value ([4]; 180 mg/kg (highest dose)) was “significant attenuation” and the “fever and flu-like symptoms” value ([4]; highest dose (180 mg/kg)) was “reduced”. The “endotoxin induced increase in plasma levels of IL-6, IL-8, IL-1RA, MCP-1, MIP-1α, MIP-1β and VCAM-1” value ([4]; lower doses (30, 90 mg/kg)) was “not with the lower doses tested”, the “renal function and allograft survival” value [5] was “improved” and the “inflammatory response and mortality following high-dose lipopolysaccharide” value [2] was “inhibit”.
With “AQGVLPG (Immunomodulatory peptide) [SEQ ID NO:7]” the “beta-cell failure with diabetes development (occurrence of diabetes after the age of 17 weeks)” value (“beta-cell failure” for short) [6] was “significantly reduces”, the “TNF-α, IL-6 and E-selectin mRNA transcript levels in the liver” value [7] was “reduced” and the liver damage [7] was “reduced”. For the same compound, the “neutrophil infiltration into the liver” value [7] was “reduced” and the “systemic release of TNF-α and IL-6” value [7] was “prevents”.
With “LQGVAPG (Immunomodulatory peptide) [SEQ ID NO:6]” the “beta-cell failure” value [6] was “significantly reduces”, the “TNF-α, IL-6 and E-selectin mRNA transcript levels in the liver” value [7] was “reduced” and the liver damage [7] was “reduced”. The “neutrophil infiltration into the liver” value [7] was “reduced” and the “systemic release of TNF-α and IL-6” value [7] was “prevents”.
In the case of NC(=O)CC[C@H](N)C(=O)O [L-Glutamine], the “activity as activators of mTOR or inhibitors of autophagy compared with other amino acids” value (mTOR; alone or in combination) is listed as “more potent”, the “mTOR associated autophagic inhibitory effects on human cells” value (mTOR; human cells) is listed as “most prominent” and the “degree of microscopic injury induced by dextran sulfate sodium (DSS)” value [8] is listed as “attenuated”.
With “AQGVAPG (Immunomodulatory peptide) [SEQ ID NO:5]” the “beta-cell failure” value [6] was “significantly reduces”, the “TNF-α, IL-6 and E-selectin mRNA transcript levels in the liver” value [7] was “reduced” and the liver damage [7] was “reduced”. The “neutrophil infiltration into the liver” value [7] was “reduced” and the “systemic release of TNF-α and IL-6” value [7] was “prevents”.
For “LQGVLPG (Immunomodulatory peptide) [SEQ ID NO:8]”, the “beta-cell failure” value [6] was “significantly reduces”, the “initial glomerular hyperfiltration (GFR) prior to glycine infusion” value [9] was “reduces” and the “renal functional reserve (GFR response to glycine infusion)” value [9] was “restores normal”. The “total protein leakage compared with rats not given heptapeptide” value [9] was “lower”, the “TNF-α, IL-6 and E-selectin mRNA transcript levels in the liver” value [7] was “reduced” and the liver damage [7] was “reduced”. The “neutrophil infiltration into the liver” value [7] was “reduced” and the “systemic release of TNF-α and IL-6” value [7] was “prevents”.
